According to patent US11365199B2, “Pyrazole compounds as modulators of FSHR and uses thereof” (Merck Patent GmbH, priority 2013, dated 2022):

Target: T1, FSHR (Homo sapiens, UniProt P23945)
T1 construct: expressed in transfected cells; host or cells: CHO (Cho-FSHR-LUC-1-1-43)
T1 sequence (P23945 18-695): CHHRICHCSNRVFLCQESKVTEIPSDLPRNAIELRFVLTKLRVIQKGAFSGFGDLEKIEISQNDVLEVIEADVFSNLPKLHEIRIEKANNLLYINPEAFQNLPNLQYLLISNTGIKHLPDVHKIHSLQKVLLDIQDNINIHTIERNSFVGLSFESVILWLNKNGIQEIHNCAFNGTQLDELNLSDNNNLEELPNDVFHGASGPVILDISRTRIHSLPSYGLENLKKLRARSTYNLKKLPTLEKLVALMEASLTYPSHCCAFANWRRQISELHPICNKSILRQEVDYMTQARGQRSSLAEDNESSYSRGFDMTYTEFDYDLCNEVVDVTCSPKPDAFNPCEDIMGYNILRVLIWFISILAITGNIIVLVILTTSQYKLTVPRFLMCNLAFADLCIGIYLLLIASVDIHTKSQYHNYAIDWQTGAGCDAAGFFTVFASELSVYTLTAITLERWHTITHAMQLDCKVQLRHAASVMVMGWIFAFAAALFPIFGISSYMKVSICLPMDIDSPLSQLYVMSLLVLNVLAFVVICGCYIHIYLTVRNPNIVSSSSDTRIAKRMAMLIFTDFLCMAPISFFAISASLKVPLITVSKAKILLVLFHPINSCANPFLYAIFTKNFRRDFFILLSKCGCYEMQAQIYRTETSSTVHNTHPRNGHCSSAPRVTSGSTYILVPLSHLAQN
Assay: EC50 of cyclic AMP production in CHO FSHR cells + EC20 FSH (Assay A)
Format: cell-based
Conditions: CHO FSHR cells + EC20 FSH, cAMP HTRF; read-out: Assay A: EC50 of cyclic AMP production
Method: EC50 of Cyclic AMP Production in CHO FSHR Cells+EC20 FSH (Assay A)
2500 Cho-FSHR-LUC-1-1-43 cells were plated per well in 5 μl of phenol red free DMEM/F12+1% FBS. Cells were plated in 384 well, solid white low volume plates (Greiner 784075) by Multidrop. Cells were assayed by adding 100 μl of 2×EC20 FSH/IBMX in DMEM/F12+0.1% BSA) by Multidrop to 2 μl of test compound stamped in 384 well plates (compounds are diluted 1:50). The final FSH concentration was […], and the final IBMX concentration was 200 μM. The compound plate map was as follows: Column 1: 2 μl of DMSO; Column 2: 2 μl of DMSO; Columns 3-12 and 13-24: 2 μl of test compound, diluted 1:4 in 100% DMSO, or 2 μl of FSH, diluted 1:4 in DMEM/F12+0.1% BSA. The starting concentration for FSH was 50 nM (final concentration was 0.5 nM). Furthermore, Column 23 contained 2 μl of EC100 FSH reference (100×) (diluted in DMEM/F12+0.1% BSA) at a final concentration of 0.5 nM, and Column 24 contained 2 μl of 1 mM AS707664/2 reference compound 2. 5 μl of compound+EC20 FSH mixture were transferred to cell plates (1:2 dilution into 5 μl of cell media) The plates were incubated at 37° C. for 1 h. 10 μl of mixed HTRF (CisBio #62AM4PEC) reagents were added per well and incubated at room temperature for 1 h. The plates were read on Envision using the cAMP HTRF—low volume 384 well protocol. The readout was the calculated fluorescence ratio (665 nm/620 nm). Values given in percent (%) indicate the percental effect (response) at a certain concentration of agonist relative to the maximum response of the FSH standard.

Structure (SMILES)	EC50
COc1cc2c(cc1-c1ccn(C)n1)-c1c(c(C(=O)O[C@H]3CC[C@H](N)C3)nn1-c1ccsc1)CO2 [Compound 180, 7-Methoxy-8-(1-methyl-1H-pyrazol-3-yl)-1-thiophen-3-yl-1,4-dihydro-chromeno[4,3-c]pyrazole-3-carboxylic Acid (1S,3S)-3-amino-cyclopentyl Ester]	< 100 nM
[2H]C([2H])([2H])OCC1(C)CCCN1C(=O)c1nn(-c2ccsc2)c2c1COc1cc(OC)ccc1-2 (stereo not shown) [Compound 183, (2-Methoxymethyl-2-methyl-pyrrolidin-1-yl)-(7-methoxy-1-thiophen-3-yl-1,4-dihydro-chromeno[4,3-c]pyrazol-3-yl)-methanone]	100 to 1000 nM
COc1cc2c(cc1C=C(C)C)-c1c(c(C(=O)N(C)CCCN3CCOC3=O)nn1-c1ccsc1)CO2 [Compound 33]	100 to 1000 nM
COc1cc2c(cc1-c1c[nH]nc1C)-c1c(c(C(=O)NC3CC(O)C3)nn1-c1ccsc1)CO2 (stereo not shown) [Compound 138, 7-Methoxy-8-(3-methyl-1H-pyrazol-4-yl)-1-thiophen-3-yl-1,4-dihydro-chromeno[4,3-c]pyrazole-3-carboxylic acid (3-hydroxy-cyclobutyl)-amide]	> 5000 nM
CCn1nc(C)c(-c2cc3c(cc2OC)OCc2c(C(=O)N4CCOCC4(C)C)nn(-c4ccsc4)c2-3)c1C [Compound 204, (3,3-Dimethyl-morpholin-4-yl)-[8-(1-ethyl-3,5-dimethyl-1H-pyrazol-4-yl)-7-methoxy-1-thiophen-3-yl-1,4-dihydro-chromeno[4,3-c]pyrazol-3-yl]-methanone]	< 100 nM
COc1cc2c(cc1-c1c[nH]nc1C)-c1c(c(C(=O)N(C)C(C)(C)C)nn1-c1ccsc1)CO2 [Compound 71, 7-Methoxy-8-(3-methyl-1H-pyrazol-4-yl)-1-thiophen-3-yl-1,4-dihydro-chromeno[4,3-c]pyrazole-3-carboxylic acid tert-butyl-methyl-amide]	< 100 nM
CCOCn1cc(-c2cc3c(cc2OC)OCc2c(C(=O)N(C)C(C)(C)C)nn(-c4ccsc4)c2-3)nn1 [Compound 152, 8-(1-Ethoxymethyl-1H-[1,2,3]triazol-4-yl)-7-methoxy-1-thiophen-3-yl-1,4-dihydro-chromeno[4,3-c]pyrazole-3-carboxylic acid tert-butyl-methyl-amide]	< 100 nM
COc1cc2c(cc1-c1ccn(C)c1)-c1c(c(C(=O)NCC3(O)COC3)nn1-c1ccsc1)CO2 [Compound 164, 7-Methoxy-8-(1-methyl-1H-pyrrol-3-yl)-1-thiophen-3-yl-1,4-dihydro-chromeno[4,3-c]pyrazole-3-carboxylic acid (3-hydroxy-oxetan-3-ylmethyl)-amide]	1000 to 5000 nM
COc1cc2c(cc1-c1c[nH]nc1C)-c1c(c(C(=O)NC3CCOC3)nn1-c1ccsc1)CO2 (stereo not shown) [Compound 135, 7-Methoxy-8-(3-methyl-1H-pyrazol-4-yl)-1-thiophen-3-yl-1,4-dihydro-chromeno[4,3-c]pyrazole-3-carboxylic acid (tetrahydro-furan-3-yl)-amide]	1000 to 5000 nM
COc1cc2c(cc1C=C(C)C)-c1c(c(C(=O)N3CCCC(N)CC3)nn1-c1ccsc1)CO2 (stereo not shown) [Compound 36, (4-Amino-azepan-1-yl)-[7-methoxy-8-(2-methyl-propenyl)-1-thiophen-3-yl-1,4-dihydro-chromeno[4,3-c]pyrazol-3-yl]-methanone]	100 to 1000 nM
COc1cc2c(cc1C=C(C)C)-c1c(c(C(=O)N3CCC(C(=O)O)CC3)nn1-c1ccsc1)CO2 [Compound 16, 1-{7-Methoxy-8-(2-methyl-propenyl)-1-thiophen-3-yl-1,4-dihydro-chromeno[4,3-c]pyrazole-3-carbonyl]-piperidine-4-carboxylic acid]	> 5000 nM
COc1cc2c(cc1C=C(C)C)-c1c(c(C(=O)N3CCCC(NC(=O)OC(C)(C)C)CC3)nn1-c1ccsc1)CO2 (stereo not shown) [Compound 35, {1-[7-Methoxy-8-(2-methyl-propenyl)-1-thiophen-3-yl-1,4-dihydro-chromeno[4,3-c]pyrazole-3-carbonyl]-azepan-4-yl}-carbamic acid tert-butyl ester]	1000 to 5000 nM
COc1cc2c(cc1-c1ccn(C)c1)-c1c(c(C(=O)NC(C)(CO)CO)nn1-c1ccsc1)CO2 [Compound 179, 7-methoxy-8-(1-methyl-1H-pyrrol-3-yl)-1-thiophen-3-yl-1,4-dihydro-chromeno[4,3-c]pyrazole-3-carboxylic acid (2-hydroxy-1-hydroxymethyl-1-methyl-ethyl)-amide]	100 to 1000 nM
COc1cc2c(cc1-c1ccsc1C)-c1c(c(C(=O)N(C)C(C)(C)C)nn1-c1ccsc1)CO2 [Compound 75]	< 100 nM
COc1cc2c(cc1-c1cn(C)cn1)-c1c(c(C(=O)N(C)C(C)(C)C)nn1-c1ccsc1)CO2 [Compound 129, 7-Methoxy-8-(1-methyl-1H-imidazol-4-yl)-1-thiophen-3-yl-1,4-dihydro-chromeno[4,3-c]pyrazole-3-carboxylic acid tert-butyl-methyl-amide]	< 100 nM
COc1cc2c(cc1C=C(C)C)-c1c(c(C(=O)N3CCC[C@H](C(=O)N4CCC4)CC3)nn1-c1ccsc1)CO2 [Compound 46, [(S)-4-(Azetidine-1-carbonyl)-azepan-1-yl]-[7-methoxy-8-(2-methyl-propenyl)-1-thiophen-3-yl-1,4-dihydro-chromeno[4,3-c]pyrazol-3-yl]-methanone]	1000 to 5000 nM

Now from value to compound:

EC50	Structure (SMILES)
< 100 nM	[2H]C([2H])([2H])N(C(=O)c1nn(-c2ccsc2)c2c1COc1cc(OC)c(S(=O)(=O)C(C)C)cc1-2)C1(C)COC1 [Compound 199]
1000 to 5000 nM	COc1cc2c(cc1C(O)C(C)(C)O)-c1c(c(C(=O)N(C)C(C)(C)C)nn1-c1ccsc1)CO2 (stereo not shown) [Compound 38, 8-(1,2-Dihydroxy-2-methyl-propyl)-7-methoxy-1-thiophen-3-yl-1,4-dihydro-chromeno[4,3-c]pyrazole-3-carboxylic Acid tert-butyl-methyl-amide]
< 100 nM	COc1cc2c(cc1-c1cnn(C(C)C)c1)-c1c(c(C(=O)N3CCOCC3(C)C)nn1-c1ccsc1)CO2 [Compound 191, (3,3-Dimethyl-morpholin-4-yl)-[8-(1-isopropyl-1H-pyrazol-4-yl)-7-methoxy-1-thiophen-3-yl-1,4-dihydro-chromeno[4,3-c]pyrazol-3-yl]-methanone]
100 to 1000 nM	COc1cc2c(cc1S(=O)(=O)C1CC1)-c1c(c(C(=O)N3CCOCC3(C)C)nn1-c1ccsc1)CO2 [Compound 106, (8-Cyclopropanesulfonyl-7-methoxy-1-thiophen-3-yl-1,4-dihydro-chromeno[4,3-c]pyrazol-3-yl)-(3,3-dimethyl-morpholin-4-yl)-methanone]
100 to 1000 nM	[2H]C([2H])([2H])N(CCNC(C)=O)C(=O)c1nn(-c2ccsc2)c2c1COc1cc(OC)c(C=C(C)C)cc1-2 [Compound 87]
100 to 1000 nM	[2H]C([2H])([2H])N(C(=O)c1nn(-c2ccsc2)c2c1COc1cc(OC)c(-c3cn(C([2H])([2H])[2H])nc3C)cc1-2)C1CCOC1 (stereo not shown) [Compound 143]
1000 to 5000 nM	[2H]C([2H])([2H])N(C(=O)c1nn(-c2ccsc2)c2c1COc1cc(OC)c(-c3ccn(C)n3)cc1-2)C1CCOC1 (stereo not shown) [Compound 140]
< 100 nM	[2H]C([2H])([2H])N(CCN(C(=O)c1nn(-c2ccsc2)c2c1COc1cc(OC)c(C=C(C)C)cc1-2)C([2H])([2H])[2H])C(C)=O [Compound 61]
< 100 nM	COc1cc2c(cc1C=C(C)C)-c1c(c(C(=O)N3CCOCC3(C)C)nn1-c1ccsc1)CO2 [Compound 39, (3,3-Dimethyl-morpholin-4-yl)-[7-methoxy-8-(2-methyl-propenyl)-1-thiophen-3-yl-1,4-dihydro-chromeno[4,3-c]pyrazol-3-yl]-methanone]
